The numbers were not newly measured in publication PMC2984425, “Safety and pharmacokinetics of novel selective vascular endothelial growth factor receptor-2 inhibitor YN968D1 in patients with advanced malignancies” (BMC Cancer, 2010), which cites them from elsewhere.

Molecules are shown by their SMILES.

This data set has as its system xenograft. Details: method as in ref 8 = [8]; Chen P Iruela-Arispe L Lou L Sun P Yuan K VEGFr inhibitor YN968D1 xenograft dose response studies against human colon cancer Ls174t and HT29 Proc Amer Assoc Cancer Res 2006 47 abst 1764. The following applies: xenograft study; cited from earlier work.

As for `N#CC1(c2ccc(NC(=O)c3cccnc3NCc3ccncc3)cc2)CCCC1` [apatinib], the “in vivo efficacy compared to valatinib” value was “superior in vivo efficacy”.
